Reference: US9598677B2, “Use of human biliverdin reductase and fragments thereof for the treatment of protein kinase C-delta and ERK related conditions” (University of Rochester, priority 2009, dated 2017)
Ends that are not written are not given here. * marks the point of attachment. Myristoyl = CCCCCCCCCCCCCC(=O)*

Experiments:
recombinant human PKC-δ = experiment: PKC-δ kinase assay in vitro (p81 filter / autoradiography); assay type: biochemical
Protocol: Measurement of PKC-δ activity: In vitro kinase activity assays were performed with active recombinant human PKC-δ kinase (as a GST fusion protein). PKC-δ assay in vitro was performed using 5 ng purified enzyme in a 50 μl assay containing 50 mM HEPES pH 7.4, 10 mM MgCl2, 0.2 mM DTT, sonicated lipid activators (0.5 μg phosphatidylserine and 0.05 μg diacylglycerol) or lipid activators plus PMA (as indicated in appropriate experiments) and PKC-δ substrates. The reaction was started by the addition of 50 μM ATP labeled with 5 μCi [γ-^32P]-ATP. Incubation was performed for 15 min at 30° C., unless otherwise stated. The reaction was terminated on ice, either by the addition of Laemmli buffer followed by SDS-PAGE, transferred to PVDF membrane, and autoradiography, or by the addition of 1 volume 10% phosphoric acid for p81 transfer as described below. For autophosphorylation of PKC-δ 20 μM ATP was used to start the 40-min reaction.
When hBVR or its mutants were tested for their effect on PKC-δ activity, they were pre-incubated for 5 min at room temperature with the PKC prior to substrate addition. The hBVR-derived peptides were used at concentrations indicated in appropriate figures.
When hBVR or its mutants were assayed as the sole substrates for PKC, the incubation conditions were as described above and the incubation was for 40 min at 30° C. unless specified otherwise. The reaction was terminated by the addition of Laemmli buffer, and the reaction products were detected by SDS-PAGE, transfer to PVDF membrane, and autoradiography.
Measurement of PKC-δ activity: PKC-δ assay in vitro was performed using 0.1 ng/μl purified recombinant human PKC-δ kinase with reaction conditions specified by the manufacturer. Effector molecules such as hBVR or peptides were added 5 min prior to substrate. The reaction was started by the addition of [γ-^32P]-ATP (Lerner-Marmarosh et al., “Human Biliverdin Reductase: A Member of the Insulin Receptor Substrate Family with Serine/Threonine/Tyrosine Kinase Activity,” Proc. Natl. Acad. Sci. U.S.A. 102(20):7109-7114 (2005), which is hereby incorporated by reference in its entirety). Reaction products were detected either by gel electrophoresis and autoradiography or by the p81 filter assay. PKC-δ activity on agarose beads was also measured. Cell lysates were immunoprecipitated with anti-PKC-δ antibody followed by protein A/G agarose. The immunoprecipitates were used in kinase reactions containing 50 μM PKC-δ specific peptide substrate as above; incorporation of ^32P was measured by p81 method.

PKC-δ = target: T1, PKC-δ (Homo sapiens, UniProt Q05655, DEL151-160); experiment: PKC-δ activity assay in situ in 293A cells; assay type: cell-based; settings: myristoylated peptide, FIG. 5C
T1 construct: The human PKC-δ open reading frame was also cloned in the same vectors; expressed in transfected cells; host or cells: HEK 293A
Protocol: The PKC-δ activity assay in situ was performed by a modification of procedures detailed by Williams and Schrier (Williams et al., Glucose-Induced Protein Kinase C Activity Regulates Arachidonic Acid Release and Eicosanoid Production by Cultured Glomerular Mesangial Cells,” J. Clin. Invest. 92:2889-2896 (1993), which is hereby incorporated by reference in its entirety). Cells were seeded into 48-well plates and transfected with 0.1 μg/well pcDNA3-hBVR. After 24 h, the medium was replaced with a starvation medium (0.1% serum) and incubation continued for another 24 h to synchronize cells. In some wells, PKC inhibitor Rottlerin (20 μM) was added 30 min before addition of PMA (100 nM) for 15 min. In some wells, hBVR-derived peptides were introduced to cells in their myristoylated form. Cells were washed with medium and incubated for 10 min at 30° C. in 50 μl of kinase assay buffer (137 mM NaCl, 5.4 mM KCl, 10 mM MgCl2, 0.3 mM Na2HPO4, 0.4 mM KH2PO4, 25 mM β-glycerophosphate, 5.5 mM D-glucose, 5 mM EGTA, 1 mM CaCl2, 20 mM HEPES (pH 7.2), 50 μg/ml digitonin, 120 μg/ml of PKC-δ specific substrate (ARRKRKGSFFGG; SEQ ID NO: 52) and 100 μM ATP labeled with 10 μCi/ml [γ-^32P]-ATP). The reaction was stopped with the addition of 25 μl of ice-cold 30% (wt/vol) TCA. The TCA-soluble fraction samples were transferred to p81 phospho-cellulose filters. […]

T1 sequence (Q05655 with tags, fused parts or gaps DEL151-160): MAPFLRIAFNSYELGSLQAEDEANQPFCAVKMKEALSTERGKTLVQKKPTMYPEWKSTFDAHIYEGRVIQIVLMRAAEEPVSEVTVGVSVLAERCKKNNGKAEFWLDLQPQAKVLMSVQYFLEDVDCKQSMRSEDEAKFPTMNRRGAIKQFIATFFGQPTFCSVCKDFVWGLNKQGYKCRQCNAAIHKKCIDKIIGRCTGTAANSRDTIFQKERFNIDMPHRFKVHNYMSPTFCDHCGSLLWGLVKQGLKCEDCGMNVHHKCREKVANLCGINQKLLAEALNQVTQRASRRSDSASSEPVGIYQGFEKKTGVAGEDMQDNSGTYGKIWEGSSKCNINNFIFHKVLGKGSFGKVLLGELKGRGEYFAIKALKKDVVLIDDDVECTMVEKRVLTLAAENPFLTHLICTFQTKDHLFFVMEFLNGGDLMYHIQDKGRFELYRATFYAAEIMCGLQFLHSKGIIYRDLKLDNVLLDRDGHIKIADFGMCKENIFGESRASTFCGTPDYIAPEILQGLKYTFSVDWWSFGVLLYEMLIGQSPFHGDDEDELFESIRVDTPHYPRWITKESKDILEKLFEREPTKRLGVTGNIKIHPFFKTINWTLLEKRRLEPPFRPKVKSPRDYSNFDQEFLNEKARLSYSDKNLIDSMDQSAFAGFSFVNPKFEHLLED

With KRNRYLSF (Myristoyl-KRNRYLSF) the “inhibition of phosphorylation of the commercial substrate” value (recombinant human PKC-δ; 50 μM substrate/10 μM inhibitor, FIG. 5A) was “More than 90%”, the “sensitivity of PKC-δ activity to the inhibitory peptide” value (recombinant human PKC-δ; MBP substrate, increasing peptide concentrations, FIG. 5D) was “most sensitive” and the “activity of constitutively active PKC-δ in cells” value (PKC-δ) was “effective inhibitor”.
